Measured values taken from publication PMC8213057, “Targeting ALK2: An Open Science Approach to Developing Therapeutics for the Treatment of Diffuse Intrinsic Pontine Glioma” (Journal of Medicinal Chemistry, 2020).

Tests used:
CAMK1g = CAMK1g (Homo sapiens, UniProt Q96NX5); conditions: 1 μM; Run 1, Run 2
CDK5/p35 = CDK5/p35 (Homo sapiens, UniProt Q00535); conditions: 1 μM; Run 1, Run 2
CLK2 = CLK2 (Homo sapiens, UniProt P49760); conditions: 1 μM; Run 1, Run 2
ERK5/MAPK7 = ERK5/MAPK7 (Homo sapiens, UniProt Q13164); conditions: 1 μM; Run 1, Run 2
HPK1/MAP4K1 [1] = molecular target: T1, HPK1/MAP4K1 (Homo sapiens, UniProt Q92918); conditions: 1 μM; Run 1, Run 2
T1 sequence (Q92918 whole entry): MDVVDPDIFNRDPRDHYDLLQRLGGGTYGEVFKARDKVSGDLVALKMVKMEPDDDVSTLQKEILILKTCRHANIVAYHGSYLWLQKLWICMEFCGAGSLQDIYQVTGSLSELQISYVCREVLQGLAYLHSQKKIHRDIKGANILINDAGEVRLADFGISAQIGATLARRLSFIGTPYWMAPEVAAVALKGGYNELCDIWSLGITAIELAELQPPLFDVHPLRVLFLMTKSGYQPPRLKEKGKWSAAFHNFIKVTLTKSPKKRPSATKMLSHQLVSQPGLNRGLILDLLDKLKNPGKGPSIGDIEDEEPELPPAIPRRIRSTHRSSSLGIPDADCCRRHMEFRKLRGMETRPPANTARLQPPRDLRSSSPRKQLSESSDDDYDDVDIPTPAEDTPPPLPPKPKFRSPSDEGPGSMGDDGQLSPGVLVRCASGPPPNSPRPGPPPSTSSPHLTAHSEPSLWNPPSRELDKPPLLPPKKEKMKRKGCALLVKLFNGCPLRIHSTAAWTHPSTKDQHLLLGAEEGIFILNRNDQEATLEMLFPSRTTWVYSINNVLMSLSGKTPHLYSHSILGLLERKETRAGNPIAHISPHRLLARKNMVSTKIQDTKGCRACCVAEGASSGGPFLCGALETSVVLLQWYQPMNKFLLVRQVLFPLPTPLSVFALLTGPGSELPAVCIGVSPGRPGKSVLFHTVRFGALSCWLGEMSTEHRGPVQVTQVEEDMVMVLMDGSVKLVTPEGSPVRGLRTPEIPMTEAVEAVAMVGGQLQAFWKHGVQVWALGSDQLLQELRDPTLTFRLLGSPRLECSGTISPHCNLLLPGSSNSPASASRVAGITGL

JNK2 = JNK2 (Homo sapiens, UniProt P45984); conditions: 1 μM; Run 1, Run 2
PASK = PASK (Homo sapiens, UniProt Q96RG2); conditions: 1 μM; Run 1, Run 2
Chain of PASK (Q96RG2 whole entry): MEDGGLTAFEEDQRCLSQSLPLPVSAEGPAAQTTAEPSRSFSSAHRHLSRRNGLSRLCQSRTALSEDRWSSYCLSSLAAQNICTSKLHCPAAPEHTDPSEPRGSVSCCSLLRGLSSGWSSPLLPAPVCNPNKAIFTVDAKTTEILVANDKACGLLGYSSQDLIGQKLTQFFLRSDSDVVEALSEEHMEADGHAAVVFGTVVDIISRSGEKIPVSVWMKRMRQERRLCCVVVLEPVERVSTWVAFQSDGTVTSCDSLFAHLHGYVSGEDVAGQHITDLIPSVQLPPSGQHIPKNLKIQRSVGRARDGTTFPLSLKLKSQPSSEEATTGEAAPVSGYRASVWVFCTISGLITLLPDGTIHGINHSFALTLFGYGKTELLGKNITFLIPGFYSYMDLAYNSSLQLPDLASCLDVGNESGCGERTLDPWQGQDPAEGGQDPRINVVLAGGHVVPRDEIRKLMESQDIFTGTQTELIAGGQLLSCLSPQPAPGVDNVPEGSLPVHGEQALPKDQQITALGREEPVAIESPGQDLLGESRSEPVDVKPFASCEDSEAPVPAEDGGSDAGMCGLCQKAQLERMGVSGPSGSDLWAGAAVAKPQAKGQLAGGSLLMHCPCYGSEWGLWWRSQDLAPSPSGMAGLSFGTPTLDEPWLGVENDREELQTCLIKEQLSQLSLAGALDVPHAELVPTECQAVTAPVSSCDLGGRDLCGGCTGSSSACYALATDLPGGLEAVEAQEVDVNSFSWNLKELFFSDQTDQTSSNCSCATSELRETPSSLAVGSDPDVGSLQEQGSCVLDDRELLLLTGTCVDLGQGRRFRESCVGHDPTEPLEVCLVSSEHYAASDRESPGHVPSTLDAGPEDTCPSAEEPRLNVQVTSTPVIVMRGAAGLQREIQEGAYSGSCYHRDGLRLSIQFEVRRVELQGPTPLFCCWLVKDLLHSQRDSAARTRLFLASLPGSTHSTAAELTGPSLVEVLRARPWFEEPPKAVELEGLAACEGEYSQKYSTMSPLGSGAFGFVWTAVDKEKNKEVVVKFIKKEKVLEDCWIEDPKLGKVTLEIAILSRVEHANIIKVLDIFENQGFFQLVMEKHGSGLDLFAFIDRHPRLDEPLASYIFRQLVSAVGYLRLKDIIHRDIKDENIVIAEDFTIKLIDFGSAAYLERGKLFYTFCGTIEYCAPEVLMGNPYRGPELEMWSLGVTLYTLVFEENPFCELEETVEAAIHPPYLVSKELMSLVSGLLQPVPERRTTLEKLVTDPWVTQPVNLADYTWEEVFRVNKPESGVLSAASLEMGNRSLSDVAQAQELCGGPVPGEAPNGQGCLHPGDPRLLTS

ROCK1 = ROCK1 (Homo sapiens, UniProt Q13464); conditions: 1 μM; Run 1, Run 2
STK39/STLK3 = STK39/STLK3 (Homo sapiens, UniProt Q9UEW8); conditions: 1 μM; Run 1, Run 2
TNK1 = molecular target: T2, TNK1 (Homo sapiens, UniProt Q13470); conditions: 1 μM; Run 1, Run 2
T2 sequence (Q13470 1-666): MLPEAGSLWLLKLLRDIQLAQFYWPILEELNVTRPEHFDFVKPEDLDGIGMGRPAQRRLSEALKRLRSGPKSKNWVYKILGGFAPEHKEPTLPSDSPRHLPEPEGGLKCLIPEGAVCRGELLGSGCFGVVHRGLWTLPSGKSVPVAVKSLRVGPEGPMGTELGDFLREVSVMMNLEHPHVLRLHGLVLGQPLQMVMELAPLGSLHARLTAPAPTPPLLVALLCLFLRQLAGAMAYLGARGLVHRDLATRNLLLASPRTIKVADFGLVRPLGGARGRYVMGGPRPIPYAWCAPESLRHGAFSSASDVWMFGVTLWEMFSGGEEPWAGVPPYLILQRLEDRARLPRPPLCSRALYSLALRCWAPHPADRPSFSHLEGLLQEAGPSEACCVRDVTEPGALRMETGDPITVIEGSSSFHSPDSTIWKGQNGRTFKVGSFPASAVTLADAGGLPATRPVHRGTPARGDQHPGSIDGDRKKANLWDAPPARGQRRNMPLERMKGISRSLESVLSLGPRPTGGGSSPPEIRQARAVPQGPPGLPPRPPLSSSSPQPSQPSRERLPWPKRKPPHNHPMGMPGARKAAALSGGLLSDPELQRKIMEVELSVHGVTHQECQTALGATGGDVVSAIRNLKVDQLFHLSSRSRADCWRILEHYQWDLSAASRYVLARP

ARAF = molecular target: T3, ARAF (Homo sapiens, UniProt P10398); assay: biochemical; conditions: read-out: % enzyme activity, 1 μM; Run 1, Run 2
T3 sequence (P10398 1-606): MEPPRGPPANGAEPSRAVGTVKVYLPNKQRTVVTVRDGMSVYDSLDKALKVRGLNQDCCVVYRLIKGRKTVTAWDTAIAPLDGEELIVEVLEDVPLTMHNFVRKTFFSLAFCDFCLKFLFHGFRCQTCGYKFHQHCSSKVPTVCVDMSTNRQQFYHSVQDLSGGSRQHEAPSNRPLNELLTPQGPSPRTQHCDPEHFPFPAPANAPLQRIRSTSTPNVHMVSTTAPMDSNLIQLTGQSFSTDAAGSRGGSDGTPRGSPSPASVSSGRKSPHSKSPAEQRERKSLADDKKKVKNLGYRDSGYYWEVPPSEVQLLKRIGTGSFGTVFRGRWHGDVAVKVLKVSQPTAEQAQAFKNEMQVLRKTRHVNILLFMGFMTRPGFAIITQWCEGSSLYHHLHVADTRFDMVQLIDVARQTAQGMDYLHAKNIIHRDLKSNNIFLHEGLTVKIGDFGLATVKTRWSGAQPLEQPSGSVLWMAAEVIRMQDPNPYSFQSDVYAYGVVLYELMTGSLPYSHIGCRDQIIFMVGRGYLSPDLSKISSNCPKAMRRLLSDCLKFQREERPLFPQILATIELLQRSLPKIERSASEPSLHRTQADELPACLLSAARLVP

CAMK1b = CAMK1b (Homo sapiens, UniProt Q6P2M8); assay: biochemical; conditions: read-out: % enzyme activity, 1 μM; Run 1, Run 2
Chain of CAMK1b (Q6P2M8 whole entry): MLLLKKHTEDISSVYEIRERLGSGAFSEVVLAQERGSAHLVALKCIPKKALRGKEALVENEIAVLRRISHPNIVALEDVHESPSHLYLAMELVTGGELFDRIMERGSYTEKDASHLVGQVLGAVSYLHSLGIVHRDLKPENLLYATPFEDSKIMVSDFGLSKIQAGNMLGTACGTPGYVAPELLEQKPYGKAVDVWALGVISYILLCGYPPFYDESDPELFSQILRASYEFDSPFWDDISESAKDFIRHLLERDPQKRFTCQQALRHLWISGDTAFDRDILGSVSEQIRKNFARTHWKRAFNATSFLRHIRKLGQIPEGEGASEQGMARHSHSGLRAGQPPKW

CDK6/cyclin D1 = CDK6/cyclin D1 (Homo sapiens, UniProt Q00534); assay: biochemical; conditions: read-out: % enzyme activity, 1 μM; Run 1, Run 2
Chain of CDK6/cyclin D1 (Q00534 whole entry): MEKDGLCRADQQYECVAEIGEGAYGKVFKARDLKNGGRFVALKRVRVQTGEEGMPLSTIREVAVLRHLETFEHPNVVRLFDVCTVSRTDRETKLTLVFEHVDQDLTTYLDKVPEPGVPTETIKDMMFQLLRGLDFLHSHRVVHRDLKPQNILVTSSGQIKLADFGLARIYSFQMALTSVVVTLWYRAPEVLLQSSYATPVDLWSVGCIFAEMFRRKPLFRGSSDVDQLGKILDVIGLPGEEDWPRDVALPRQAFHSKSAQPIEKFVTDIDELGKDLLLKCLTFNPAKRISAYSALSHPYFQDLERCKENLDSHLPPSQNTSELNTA
Chain of CDK6/cyclin D1 (P24385 whole entry partner): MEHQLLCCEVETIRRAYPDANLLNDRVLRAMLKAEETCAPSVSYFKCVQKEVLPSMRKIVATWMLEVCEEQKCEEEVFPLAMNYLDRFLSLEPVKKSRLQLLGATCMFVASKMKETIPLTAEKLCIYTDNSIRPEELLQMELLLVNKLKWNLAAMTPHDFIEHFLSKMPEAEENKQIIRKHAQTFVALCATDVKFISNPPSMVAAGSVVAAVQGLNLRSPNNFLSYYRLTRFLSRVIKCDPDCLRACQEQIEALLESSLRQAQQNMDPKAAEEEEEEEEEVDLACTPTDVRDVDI

HPK1/MAP4K1 [2] = molecular target: T1, HPK1/MAP4K1; assay: biochemical; conditions: read-out: % enzyme activity, 1 μM; Run 1, Run 2
LOK/STK10 = LOK/STK10 (Homo sapiens, UniProt O94804); assay: biochemical; conditions: read-out: % enzyme activity, 1 μM; Run 1, Run 2
MLK1/MAP3K9 = MLK1/MAP3K9 (Homo sapiens, UniProt P80192); assay: biochemical; conditions: read-out: % enzyme activity, 1 μM; Run 1, Run 2
Chain of MLK1/MAP3K9 (P80192 whole entry): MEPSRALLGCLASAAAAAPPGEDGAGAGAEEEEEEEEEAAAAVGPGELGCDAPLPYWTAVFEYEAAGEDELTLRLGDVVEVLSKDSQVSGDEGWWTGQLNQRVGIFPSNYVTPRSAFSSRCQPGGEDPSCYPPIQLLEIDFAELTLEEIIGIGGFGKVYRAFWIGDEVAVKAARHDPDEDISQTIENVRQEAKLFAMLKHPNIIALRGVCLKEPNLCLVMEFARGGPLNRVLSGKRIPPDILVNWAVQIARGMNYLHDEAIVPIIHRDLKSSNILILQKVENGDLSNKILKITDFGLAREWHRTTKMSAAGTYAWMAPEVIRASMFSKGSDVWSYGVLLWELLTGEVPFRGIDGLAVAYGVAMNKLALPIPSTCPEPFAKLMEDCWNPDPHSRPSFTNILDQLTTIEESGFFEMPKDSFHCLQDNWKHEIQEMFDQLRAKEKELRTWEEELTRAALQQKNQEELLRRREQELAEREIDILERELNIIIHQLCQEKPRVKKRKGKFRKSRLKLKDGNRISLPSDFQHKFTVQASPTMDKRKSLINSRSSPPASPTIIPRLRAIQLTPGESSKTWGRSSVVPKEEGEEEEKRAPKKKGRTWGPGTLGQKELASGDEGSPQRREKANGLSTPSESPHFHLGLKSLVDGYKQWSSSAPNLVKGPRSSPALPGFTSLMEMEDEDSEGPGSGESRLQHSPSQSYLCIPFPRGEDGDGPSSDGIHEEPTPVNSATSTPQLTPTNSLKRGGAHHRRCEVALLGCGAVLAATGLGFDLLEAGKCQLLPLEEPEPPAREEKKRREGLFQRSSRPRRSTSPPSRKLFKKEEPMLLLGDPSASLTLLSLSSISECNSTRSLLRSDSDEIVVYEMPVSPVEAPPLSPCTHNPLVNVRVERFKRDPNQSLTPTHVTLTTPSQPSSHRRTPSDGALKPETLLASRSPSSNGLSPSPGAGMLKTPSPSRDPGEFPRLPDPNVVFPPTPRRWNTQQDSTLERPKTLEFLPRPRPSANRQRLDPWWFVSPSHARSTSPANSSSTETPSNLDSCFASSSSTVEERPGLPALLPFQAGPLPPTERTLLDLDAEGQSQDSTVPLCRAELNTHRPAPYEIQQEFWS

NEK4 = NEK4 (Homo sapiens, UniProt P51957); assay: biochemical; conditions: read-out: % enzyme activity, 1 μM; Run 1, Run 2
PIM1 = PIM1 (Homo sapiens, UniProt P11309); assay: biochemical; conditions: read-out: % enzyme activity, 1 μM; Run 1, Run 2
Chain of PIM1 (P11309 whole entry): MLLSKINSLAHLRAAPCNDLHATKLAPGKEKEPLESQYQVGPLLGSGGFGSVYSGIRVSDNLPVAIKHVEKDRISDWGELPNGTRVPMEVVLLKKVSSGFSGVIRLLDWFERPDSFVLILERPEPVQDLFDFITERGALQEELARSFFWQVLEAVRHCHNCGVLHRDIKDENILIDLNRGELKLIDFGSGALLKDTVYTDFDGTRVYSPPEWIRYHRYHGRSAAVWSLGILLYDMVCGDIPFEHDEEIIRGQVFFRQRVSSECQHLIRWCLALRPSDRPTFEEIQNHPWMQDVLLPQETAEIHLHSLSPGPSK

Chain of CAMK1g (Q96NX5 whole entry): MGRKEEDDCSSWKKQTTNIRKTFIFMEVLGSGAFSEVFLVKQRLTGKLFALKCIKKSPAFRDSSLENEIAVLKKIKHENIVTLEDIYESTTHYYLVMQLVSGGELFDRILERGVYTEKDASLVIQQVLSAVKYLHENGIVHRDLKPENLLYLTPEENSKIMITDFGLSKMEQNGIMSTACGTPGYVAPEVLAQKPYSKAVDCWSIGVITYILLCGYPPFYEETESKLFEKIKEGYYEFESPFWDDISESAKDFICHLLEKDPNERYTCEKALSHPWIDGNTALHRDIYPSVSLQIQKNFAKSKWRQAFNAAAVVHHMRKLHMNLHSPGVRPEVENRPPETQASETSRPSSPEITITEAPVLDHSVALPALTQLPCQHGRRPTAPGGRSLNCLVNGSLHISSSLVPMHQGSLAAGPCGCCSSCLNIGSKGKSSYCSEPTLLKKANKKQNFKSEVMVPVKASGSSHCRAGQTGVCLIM

Structure (SMILES) | CYP inhibition (CYP1A2) | % enzyme activity (CAMK1g) | % enzyme activity (CDK5/p35) | % enzyme activity (CLK2) | % enzyme activity (ERK5/MAPK7) | % enzyme activity (HPK1/MAP4K1 [1]) | % enzyme activity (JNK2) | % enzyme activity (PASK) | % enzyme activity (ROCK1) | % enzyme activity (STK39/STLK3) | % enzyme activity (TNK1) | remaining activity at 1 µM (ARAF) | remaining activity at 1 µM (CAMK1b) | remaining activity at 1 µM (CDK6/cyclin D1) | remaining activity at 1 µM (HPK1/MAP4K1 [2]) | remaining activity at 1 µM (LOK/STK10) | remaining activity at 1 µM (MLK1/MAP3K9) | remaining activity at 1 µM (NEK4) | remaining activity at 1 µM (PIM1)
COc1cc(-c2cncc(-c3ccc(N4CCN(C)CC4)cc3)c2C)cc(F)c1C(N)=O [Compound 26a, 2-Fluoro-6-methoxy-4-(4-methyl-5-(4-(4-methylpiperazin-1-yl)phenyl)pyridin-3-yl)benzamide] | > 50 µM | 99.10% | 95.26% | 91.71% | 92.77% | 57.53% | 91.99% | 93.23% | 91.98% | 88.76% | 99.53% | 29.3% | 97.9% | 100% | 58.7% | 51.8% | 112% | 98.5% | 100%
COc1cc(-c2cncc(-c3ccc(N4C[C@@H](C)N(C)[C@@H](C)C4)cc3)c2C)cc(F)c1C(N)=O [Compound 26c, 2-Fluoro-6-methoxy-4-(4-methyl-5-(4-((3R,5S)-3,4,5-trimethylpiperazin-1-yl)phenyl)pyridin-3-yl)benzamide] | > 50 µM | 107.66% | 96.90% | 85.73% | 98.01% | 74.31% | 94.14% | 98.21% | 92.61% | 93.62% | 98.22% | 48.1% | 99.4% | 95.9% | 74.7% | 68.7% | 99.8% | 98% | 95.2%
